PubChem BioAssay (NCI)
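Interpolation was linear, between the two tested concentrations surrounding the appropriate level; five concentrations were tested over 48 hours in 96-well plates. GI50 marks 50% less growth. TGI: concentration producing complete growth inhibition.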

Legend:
Assay in all cases: growth of human tumour cells (NCI), 48 h
NCI-H226 lung = test system: NCI-H226 lung
KM12 colon = test system: KM12 colon
MALME-3M melanoma = test system: MALME-3M melanoma
NCI-H23 lung = test system: NCI-H23 lung
SNB-19 CNS = test system: SNB-19 CNS
786-0 renal = test system: 786-0 renal
HCT-15 colon = test system: HCT-15 colon
HT29 colon = test system: HT29 colon
COLO 205 colon = test system: COLO 205 colon
SK-MEL-28 melanoma = test system: SK-MEL-28 melanoma
HOP-62 NSCLC = test system: HOP-62 NSCLC
K-562 leukemia = test system: K-562 leukemia
OVCAR-8 ovarian = test system: OVCAR-8 ovarian
IGROV1 ovarian = test system: IGROV1 ovarian
U251 CNS = test system: U251 CNS
NCI/ADR-RES ovarian = test system: NCI/ADR-RES ovarian
CAKI-1 renal = test system: CAKI-1 renal
HCC-2998 colon = test system: HCC-2998 colon
SK-MEL-2 melanoma = test system: SK-MEL-2 melanoma
OVCAR-4 ovarian = test system: OVCAR-4 ovarian
UACC-257 melanoma = test system: UACC-257 melanoma
RXF 393 renal = test system: RXF 393 renal
T-47D breast = test system: T-47D breast
A498 renal = test system: A498 renal
SW-620 colon = test system: SW-620 colon
TK-10 renal = test system: TK-10 renal
MDA-MB-231 breast = test system: MDA-MB-231 breast
SK-MEL-5 melanoma = test system: SK-MEL-5 melanoma
SK-OV-3 ovarian = test system: SK-OV-3 ovarian

COc1ccc(C(=O)/C=C/c2cccc(Cl)c2Cl)cc1S(N)(=O)=O
GI50 (NCI-H226 lung): 2.3 µM | TGI (NCI-H226 lung): 7.5 µM | GI50 (KM12 colon): 1.99 µM | TGI (KM12 colon): 4.8 µM | GI50 (MALME-3M melanoma): 9.71 µM | TGI (MALME-3M melanoma): 20.1 µM | GI50 (NCI-H23 lung): 3.8 µM | TGI (NCI-H23 lung): 14.3 µM | GI50 (SNB-19 CNS): 5.09 µM | TGI (SNB-19 CNS): 16.1 µM | GI50 (786-0 renal): 1.88 µM | TGI (786-0 renal): 4.28 µM | GI50 (HCT-15 colon): 1.29 µM | TGI (HCT-15 colon): 2.94 µM | GI50 (HT29 colon): 1.52 µM | TGI (HT29 colon): 2.99 µM | GI50 (COLO 205 colon): 2.75 µM | TGI (COLO 205 colon): 10.3 µM | GI50 (SK-MEL-28 melanoma): 11.1 µM | TGI (SK-MEL-28 melanoma): 22 µM | GI50 (HOP-62 NSCLC): 2.3 µM | TGI (HOP-62 NSCLC): 7.12 µM | GI50 (K-562 leukemia): 2.67 µM | TGI (K-562 leukemia): 24.1 µM | GI50 (OVCAR-8 ovarian): 2.37 µM | TGI (OVCAR-8 ovarian): 8.78 µM | GI50 (IGROV1 ovarian): 3.24 µM | TGI (IGROV1 ovarian): 12.4 µM | GI50 (U251 CNS): 1.31 µM | TGI (U251 CNS): 2.48 µM | GI50 (NCI/ADR-RES ovarian): 1.89 µM | TGI (NCI/ADR-RES ovarian): 4.75 µM | GI50 (CAKI-1 renal): 4.36 µM | TGI (CAKI-1 renal): 15 µM | GI50 (HCC-2998 colon): 4.21 µM | TGI (HCC-2998 colon): 15.5 µM | GI50 (SK-MEL-2 melanoma): 11.3 µM | TGI (SK-MEL-2 melanoma): 22.3 µM | GI50 (OVCAR-4 ovarian): 3.97 µM | TGI (OVCAR-4 ovarian): 16.7 µM | GI50 (UACC-257 melanoma): 11.2 µM | TGI (UACC-257 melanoma): 22.5 µM | GI50 (RXF 393 renal): 2.09 µM | TGI (RXF 393 renal): 8.56 µM | GI50 (T-47D breast): 3.94 µM | TGI (T-47D breast): 16.4 µM | GI50 (A498 renal): 9.6 µM | TGI (A498 renal): 20 µM | GI50 (SW-620 colon): 1.58 µM | TGI (SW-620 colon): 3.3 µM | GI50 (TK-10 renal): 5.18 µM | TGI (TK-10 renal): 16.9 µM | GI50 (MDA-MB-231 breast): 2.57 µM | TGI (MDA-MB-231 breast): 7.61 µM | GI50 (SK-MEL-5 melanoma): 9.19 µM | TGI (SK-MEL-5 melanoma): 19.4 µM | GI50 (SK-OV-3 ovarian): 12.4 µM | TGI (SK-OV-3 ovarian): 23.8 µM
